# In publication PMC10562414, “GLP-1R signaling neighborhoods associate with the susceptibility to adverse drug reactions of incretin mimetics” (Nature Communications, 2023):
# Tested on: GLP-1R-expressing HEK293 cells (phosphoproteome)
# Test: Phosphoproteomics time course (5, 15, 30, 60 min) in GLP-1R-expressing cells
# Format: cell-based, human
# Procedure: P values were calculated by a two-sided unpaired t-test.
# HEK293 cells (350,000 cells/mL) were transfected in suspension using 3 μg of linear PEI (MW 25,000) per 1 μg of plasmid DNA and seeded onto poly-D-lysine-coated 60 mm dishes at a density of 1,750,000 cells per dish. After a 24-h incubation, cells were washed twice with PBS and placed in starvation media (DMEM with penicillin/streptomycin). After a 48-h incubation, cells were washed twice with HBSS and maintained in the same buffer. […] Cell extracts were prepared as previously described[64]–[66]. In short, 200 μL of the lysis buffer preheated at 95 °C (4% sodium dodecyl sulfate in 50 mM Tris adjusted to pH 8.5) was added to the cells. The samples were then denatured at 95 °C for 10 min, placed on ice and then sonicated using a probe sonicator (3 sec on, 3 sec off pulse, 1 min, 30% amplitude) (Branson). Lysate protein concentration was determined using the Pierce bicinchoninic acid assay kit (Thermo Fisher Scientific) according to the manufacturer’s instructions. The lysates were reduced using 5 mM dithiothreitol for 1 h at room temperature and alkylated using 15 mM iodoacetamide for 1 h at room temperature in the dark. Proteins were precipitated and digested on beads using MagReSyn Amine magnetic beads (ReSyn Biosciences) according to the manufacturer’s instructions. Protein digestion was conducted overnight at 37 °C with lysyl endopeptidase (LysC, Wako) (1:150 LysC/protein, w/w) and trypsin (1:300 trypsin/protein, w/w). 20% TFA, 2 M glycolic acid in 80% ACN were added to the samples at a 1:1 ratio for phosphopeptide enrichment using MagReSyn TiO2 magnetic beads (ReSyn Biosciences) according to the manufacturer’s instructions. The enriched phosphopeptides were dried overnight in a SpeedVac, resuspended into 5% formic acid (FA), desalted using StageTip (Thermo Fisher Scientific) according to the manufacturer’s instructions and dried in a SpeedVac. The experiment was performed in biological triplicates.
# All parameters and settings regarding the acquisition of the proteomics data can be found in Supplementary Data 11, 12. For data acquisition, the instrument was set to peptide mode, with a trapping pressure set as low (2mTorr). An EASY-Spray Source (Thermo Fisher Scientific) was used and the column temperature was maintained with the integrated, temperature-controlled heater at 55 °C throughout the experiment. For the data presented in Fig. 5d, the column was heated at 50 °C following the manufacturer’s instructions (IonOpticks).
# Acquired raw files were converted to mzML format by MSConvert (version 3.0.21258)[67] applying peak picking of the mass spectra with the vendor-provided algorithm (Thermo Fisher Scientific). The mzML files were analyzed using the FragPipe GUI v18 for both library and DIA search. […] Trypsin with up to 2 missed cleavages was set as digestion enzyme, oxidation of methionine, acetylation of the N-terminus and phosphorylation on serine, threonine and tyrosine (maximal occurrence was set to three) were set as variable modifications. Carbamidomethylation of cysteine residues was set as a fixed modification. Peptide length was restricted to 7 to 50 amino acids, and 500 to 5000 Da. The precursor tolerance was set to ±20 ppm, fragment mass tolerance to 20 ppm and MSBooster was enabled. The resulting peptide-spectrum matches were adjusted to a 1% false discovery rate with Percolator[69] as part of the Philosopher toolkit (v4.4)[70] and converted to a spectra library. DIA files were analyzed by DIA-NN 1.8.1[71], [72] using the previously generated library and monitor-command mode. Peptide quantification was performed based on the fragment elution profiles from the MS2 level (area under the curve).
# All further data processing was performed in R (version 4.2.1). Only phosphopeptides with a localization score of at least 0.75 were considered for further analysis. […]
# [1] = 15min, relative to time-matched vehicle condition, p.value […], passed.all.criteria 0
# [2] = 60min, relative to time-matched vehicle condition, p.value […], passed.all.criteria 0
structure (smiles),measurement,setting,value
N#Cc1ccc(COc2cccc(C3CCN(Cc4nc5ccc(C(=O)O)cc5n4C[C@@H]4CCO4)CC3)n2)c(F)c1 [Danuglipron],"regulation of RAB1B and α-synuclein phosphorylation, in words",1 μM,significantly regulated by danuglipron
same,number of phosphopeptides overlapping between danuglipron and semaglutide treatments,"1 μM, 30 min",8
same,number of significantly altered phosphopeptides,"1 μM, 30 min, drug-specific, vs vehicle",220
same,"Normalized phosphoproteomics data, ESYT2 S691 (A0FGR8)","5min, repA",19.6049
same,"Normalized phosphoproteomics data, HMX3 S60 (A6NHT5)","5min, repA",20.3906
same,"Normalized phosphoproteomics data, HNRNPA1L3 Y250 (A0A2R8Y4L2)","5min, repA",20.6785
same,"Normalized phosphoproteomics data, POM121C T710 (A8CG34)","5min, repA",20.0234
same,"Normalized phosphoproteomics data, SBNO1 S794 (A3KN83)","5min, repA",17.9318
same,"Normalized phosphoproteomics data, ESYT2 S691 (A0FGR8)","5min, repB",19.6976
same,"Normalized phosphoproteomics data, HMX3 S60 (A6NHT5)","5min, repB",20.283
same,"Normalized phosphoproteomics data, HNRNPA1L3 Y250 (A0A2R8Y4L2)","5min, repB",20.3164
same,"Normalized phosphoproteomics data, POM121C T710 (A8CG34)","5min, repB",20.7371
same,"Normalized phosphoproteomics data, SBNO1 S794 (A3KN83)","5min, repB",18.211
same,"Normalized phosphoproteomics data, ESYT2 S691 (A0FGR8)","5min, repC",21.1682
same,"Normalized phosphoproteomics data, HMX3 S60 (A6NHT5)","5min, repC",19.9991
same,"Normalized phosphoproteomics data, HNRNPA1L3 Y250 (A0A2R8Y4L2)","5min, repC",20.6414
same,"Normalized phosphoproteomics data, POM121C T710 (A8CG34)","5min, repC",20.3991
same,"Normalized phosphoproteomics data, SBNO1 S794 (A3KN83)","5min, repC",18.5685
same,"log2.foldchange, FOXK2 S30 (Q01167)","5min, relative to time-matched vehicle condition, p.value 0.0181801, passed.all.criteria 0",0.5529
same,"log2.foldchange, EIF3J S11 (O75822)","5min, relative to time-matched vehicle condition, p.value 0.0905175, passed.all.criteria 0",-0.3791
same,"log2.foldchange, SCFD1 S14 (Q8WVM8)","5min, relative to time-matched vehicle condition, p.value 0.889419, passed.all.criteria 0",0.04613
same,"log2.foldchange, CABLES2 T26;S27 (Q9BTV7)","5min, relative to time-matched vehicle condition, p.value 0.907346, passed.all.criteria 0",0.07188
same,"log2.foldchange, POLE4 S25 (Q9NR33)","5min, relative to time-matched vehicle condition, p.value […], passed.all.criteria 0",0.5824
same,"Normalized phosphoproteomics data, ESYT2 S691 (A0FGR8)","15min, repA",18.6451
same,"Normalized phosphoproteomics data, HMX3 S60 (A6NHT5)","15min, repA",20.5059
same,"Normalized phosphoproteomics data, HNRNPA1L3 Y250 (A0A2R8Y4L2)","15min, repA",20.4577
same,"Normalized phosphoproteomics data, POM121C T710 (A8CG34)","15min, repA",20.5017
same,"Normalized phosphoproteomics data, SBNO1 S794 (A3KN83)","15min, repA",18.6084
same,"Normalized phosphoproteomics data, ESYT2 S691 (A0FGR8)","15min, repB",18.4413
same,"Normalized phosphoproteomics data, HMX3 S60 (A6NHT5)","15min, repB",22.3446
same,"Normalized phosphoproteomics data, HNRNPA1L3 Y250 (A0A2R8Y4L2)","15min, repB",20.4067
same,"Normalized phosphoproteomics data, POM121C T710 (A8CG34)","15min, repB",18.6564
same,"Normalized phosphoproteomics data, SBNO1 S794 (A3KN83)","15min, repB",17.9968
same,"Normalized phosphoproteomics data, ESYT2 S691 (A0FGR8)","15min, repC",20.8902
same,"Normalized phosphoproteomics data, HMX3 S60 (A6NHT5)","15min, repC",20.8902
same,"Normalized phosphoproteomics data, HNRNPA1L3 Y250 (A0A2R8Y4L2)","15min, repC",20.9108
same,"Normalized phosphoproteomics data, POM121C T710 (A8CG34)","15min, repC",19.3031
same,"Normalized phosphoproteomics data, SBNO1 S794 (A3KN83)","15min, repC",18.3915
same,"log2.foldchange, EIF3J S11 (O75822)","15min, relative to time-matched vehicle condition, p.value 0.0462694, passed.all.criteria 0",0.3639
same,"log2.foldchange, SCFD1 S14 (Q8WVM8)","15min, relative to time-matched vehicle condition, p.value 0.844107, passed.all.criteria 0",0.06372
same,"log2.foldchange, CABLES2 T26;S27 (Q9BTV7)",[1],0.288
same,"log2.foldchange, FOXK2 S30 (Q01167)",[1],0.1878
same,"log2.foldchange, POLE4 S25 (Q9NR33)",[1],-0.08464
same,"Normalized phosphoproteomics data, ESYT2 S691 (A0FGR8)","30min, repA",21.4861
same,"Normalized phosphoproteomics data, HMX3 S60 (A6NHT5)","30min, repA",20.1311
same,"Normalized phosphoproteomics data, HNRNPA1L3 Y250 (A0A2R8Y4L2)","30min, repA",20.8036
same,"Normalized phosphoproteomics data, POM121C T710 (A8CG34)","30min, repA",20.7324
same,"Normalized phosphoproteomics data, SBNO1 S794 (A3KN83)","30min, repA",18.5741
same,"Normalized phosphoproteomics data, ESYT2 S691 (A0FGR8)","30min, repB",20.3489
same,"Normalized phosphoproteomics data, HMX3 S60 (A6NHT5)","30min, repB",20.2063
same,"Normalized phosphoproteomics data, HNRNPA1L3 Y250 (A0A2R8Y4L2)","30min, repB",19.9638
same,"Normalized phosphoproteomics data, POM121C T710 (A8CG34)","30min, repB",20.3008
same,"Normalized phosphoproteomics data, SBNO1 S794 (A3KN83)","30min, repB",18.1584
same,"Normalized phosphoproteomics data, ESYT2 S691 (A0FGR8)","30min, repC",19.608
same,"Normalized phosphoproteomics data, HMX3 S60 (A6NHT5)","30min, repC",21.342
same,"Normalized phosphoproteomics data, HNRNPA1L3 Y250 (A0A2R8Y4L2)","30min, repC",21.4798
same,"Normalized phosphoproteomics data, POM121C T710 (A8CG34)","30min, repC",19.571
same,"Normalized phosphoproteomics data, SBNO1 S794 (A3KN83)","30min, repC",18.2269
same,"log2.foldchange, POLE4 S25 (Q9NR33)","30min, relative to time-matched vehicle condition, p.value 0.0332159, passed.all.criteria 0",0.4522
same,"log2.foldchange, CABLES2 T26;S27 (Q9BTV7)","30min, relative to time-matched vehicle condition, p.value 0.0661459, passed.all.criteria 0",-0.4521
same,"log2.foldchange, TRAF2 T7;S11 (Q12933)","30min, relative to time-matched vehicle condition, p.value 0.177246, passed.all.criteria 0",1.124
same,"log2.foldchange, FOXK2 T13 (Q01167)","30min, relative to time-matched vehicle condition, p.value 0.184134, passed.all.criteria 0",-0.3505
same,"log2.foldchange, SCFD1 S14 (Q8WVM8)","30min, relative to time-matched vehicle condition, p.value […], passed.all.criteria 0",-0.2911
same,"Normalized phosphoproteomics data, ESYT2 S691 (A0FGR8)","60min, repA",20.822
same,"Normalized phosphoproteomics data, HMX3 S60 (A6NHT5)","60min, repA",21.3332
same,"Normalized phosphoproteomics data, HNRNPA1L3 Y250 (A0A2R8Y4L2)","60min, repA",20.6441
same,"Normalized phosphoproteomics data, POM121C T710 (A8CG34)","60min, repA",20.5636
same,"Normalized phosphoproteomics data, SBNO1 S794 (A3KN83)","60min, repA",19.2753
same,"Normalized phosphoproteomics data, ESYT2 S691 (A0FGR8)","60min, repB",21.3269
same,"Normalized phosphoproteomics data, HMX3 S60 (A6NHT5)","60min, repB",22.1586
same,"Normalized phosphoproteomics data, HNRNPA1L3 Y250 (A0A2R8Y4L2)","60min, repB",20.7268
same,"Normalized phosphoproteomics data, POM121C T710 (A8CG34)","60min, repB",20.6117
same,"Normalized phosphoproteomics data, SBNO1 S794 (A3KN83)","60min, repB",18.9035
same,"Normalized phosphoproteomics data, ESYT2 S691 (A0FGR8)","60min, repC",21.6663
same,"Normalized phosphoproteomics data, HMX3 S60 (A6NHT5)","60min, repC",20.1861
same,"Normalized phosphoproteomics data, HNRNPA1L3 Y250 (A0A2R8Y4L2)","60min, repC",20.5504
same,"Normalized phosphoproteomics data, POM121C T710 (A8CG34)","60min, repC",19.5289
same,"Normalized phosphoproteomics data, SBNO1 S794 (A3KN83)","60min, repC",18.62
same,"log2.foldchange, POLE4 S25 (Q9NR33)","60min, relative to time-matched vehicle condition, p.value 0.629383, passed.all.criteria 0",0.05873
same,"log2.foldchange, SCFD1 S14 (Q8WVM8)","60min, relative to time-matched vehicle condition, p.value 0.819487, passed.all.criteria 0",-0.06624
same,"log2.foldchange, CABLES2 T26;S27 (Q9BTV7)",[2],-0.3341
same,"log2.foldchange, EIF3J S11 (O75822)",[2],-0.413
same,"log2.foldchange, TRAF2 T7;S11 (Q12933)",[2],0.4682
